Active and inactive are the calls of the source. The rule behind the calls is not given here.
What was measured:
Leishmania donovani [1] = assay: Antiproliferative activity against Leishmania donovani DI700 promastigotes; assay type: functional, organism-based
Leishmania donovani [2] = assay: Growth of Leishmania donovani DI700 promastigotes at 100 uM relative to control
Leishmania donovani [3] = assay: Antiproliferative activity against Leishmania donovani DI700 promastigotes in presence of 100 uM putrescine; assay type: functional, organism-based
Leishmania donovani [4] = assay: Antiproliferative activity against Leishmania donovani DI700 promastigotes overproducing SPDSYN enzyme; assay type: functional, organism-based
Leishmania donovani [5] = assay: Antiproliferative activity against Leishmania donovani DI700 promastigotes overproducing ADOMETDC enzyme; assay type: functional, organism-based
Leishmania donovani [6] = assay: Antiproliferative activity against Leishmania donovani DI700 promastigotes in presence of 100 uM spermidine; assay type: functional, organism-based
Leishmania donovani [7] = assay: Antiproliferative activity against Leishmania donovani DI700 promastigotes overproducing ODC enzyme; assay type: functional, organism-based

CCNCCCCNCC1CC1CNCCCCNCC (stereo not given)
Activity (Leishmania donovani [1]): inactive | growth, % of control at 100 µM (Leishmania donovani [2]): 81.4%

CCNCCCCNCCCCNCCCCNCCCCNCCCCNCCCCNCCCCNCC
Activity (Leishmania donovani [1]): inactive | growth, % of control at 100 µM (Leishmania donovani [2]): 99.2%

CCNCCCCNCCCCNCCCCNCCCCNCC1CC1CNCCCCNCCCCNCCCCNCCCCNCC (stereo not given)
Activity (Leishmania donovani [1]): inactive | growth, % of control at 100 µM (Leishmania donovani [2]): 73%

CCNCCCCNCCCCNCCCCNCCCCNC/C=C\CNCCCCNCCCCNCCCCNCCCCNCC
Activity (Leishmania donovani [1]): inactive | growth, % of control at 100 µM (Leishmania donovani [2]): 25.7%

CCNCCCCNCCCCNCCCCNCCCCNCCCCNCCCCNCCCCNCCCCNCCCCNCCCCNCCCCNCCCCNCCCCNCC
EC50 (Leishmania donovani [1]): 9 µM | growth, % of control at 100 µM (Leishmania donovani [2]): 8.9%

CCNCCCCNCCCCNCCCCNCCCCNC/C=C/CNCCCCNCCCCNCCCCNCCCCNCC
Activity (Leishmania donovani [1]): inactive | growth, % of control at 100 µM (Leishmania donovani [2]): 62.4%

CCNC/C=C\CNCCCCNC/C=C\CNCC
Activity (Leishmania donovani [1]): inactive | growth, % of control at 100 µM (Leishmania donovani [2]): 128%

CCNCCCCNC/C=C\CNCCCCNCCCCNCC
Activity (Leishmania donovani [1]): inactive | growth, % of control at 100 µM (Leishmania donovani [2]): 96.2%

CCCCCCCCCCCCCC1CCN(CCCNC(=O)CCC2=C(C)c3cc4[nH]c(cc5nc(cc6[nH]c(cc2n3)c(CCC(=O)NCCCN2CCCN(C)CCCCN(C)CCCN(C)C(CCCCCCCCCCCCC)CC2)c6C)C(CC)=C5C)c(CC)c4C)CCCN(C)CCCCN(C)CCCN1C (stereo not given)
EC50 (Leishmania donovani [1]): 50 µM | growth, % of control at 100 µM (Leishmania donovani [2]): 1.7%

CCNCCCCNCC1CC1CNCCCCNCC1CC1CNCCCCNCC (stereo not given)
Activity (Leishmania donovani [1]): inactive | growth, % of control at 100 µM (Leishmania donovani [2]): 118%

CN(C/C=C\CN)C[C@H]1O[C@@H](n2cnc3c(N)ncnc32)[C@H](O)[C@@H]1O
EC50 (Leishmania donovani [3]): 800 µM | EC50 (Leishmania donovani [4]): 200 µM | EC50 (Leishmania donovani [5]): > 10000 µM | EC50 (Leishmania donovani [1]): 40 µM | EC50 (Leishmania donovani [6]): > 10000 µM | EC50 (Leishmania donovani [7]): 2700 µM

CCNCCCCNCCCCNCCCCNCCCCNCCCCNCCCCNCCCCNCCCCNCCCCNCC
EC50 (Leishmania donovani [4]): 50 µM | EC50 (Leishmania donovani [1]): 9 µM | growth, % of control at 100 µM (Leishmania donovani [2]): 62.6% | EC50 (Leishmania donovani [7]): 9 µM

CC(/C=N/NC(=N)N)=N\NC(=N)N [MITOGUAZONE]
EC50 (Leishmania donovani [3]): 2600 µM | EC50 (Leishmania donovani [4]): 1400 µM | EC50 (Leishmania donovani [5]): 1500 µM | EC50 (Leishmania donovani [1]): 1800 µM | EC50 (Leishmania donovani [6]): 1800 µM | EC50 (Leishmania donovani [7]): 2200 µM

CCNCCCNCC1CC1CNCCCNCC (stereo not given)
Activity (Leishmania donovani [1]): inactive | growth, % of control at 100 µM (Leishmania donovani [2]): 106%

CCNCCCCNCCCCNCCCCNCCCCNCCCCNCCCCNCCCCNCCCCNCCCCNCCCCNCCCCNCC
EC50 (Leishmania donovani [4]): 0.5 µM | EC50 (Leishmania donovani [1]): 0.4 µM | growth, % of control at 100 µM (Leishmania donovani [2]): 8.4% | EC50 (Leishmania donovani [7]): 5.5 µM

CCNCCCCNCCCCNCCCCNCCCCNCCCCNC/C=C/CNCCCCNCCCCNCCCCNCCCCNCCCCNCC
Activity (Leishmania donovani [1]): inactive | growth, % of control at 100 µM (Leishmania donovani [2]): 7.5%

CCCCCCCCCCCCCC1CCN(CCCN)CCCN(C)CCCCN(C)CCCCN1C (stereo not given)
Activity (Leishmania donovani [1]): inactive | growth, % of control at 100 µM (Leishmania donovani [2]): 98.3%

CCNCCCCNCCCCNCCCCNCCCCNCCCCNCCCCNCCCCNCCCCNCCCCN(CC)C(=O)CCC1=C(C)c2cc3[nH]c(cc4nc(cc5[nH]c(cc1n2)c(CCC(=O)N(CC)CCCCNCCCCNCCCCNCCCCNCCCCNCCCCNCCCCNCCCCNCCCCNCC)c5C)C(S(=O)(=O)O)=C4C)c(S(=O)(=O)O)c3C
EC50 (Leishmania donovani [1]): 0.7 µM | growth, % of control at 100 µM (Leishmania donovani [2]): 1.1%

NCCC[C@](N)(C(=O)O)C(F)F [EFLORNITHINE, (S)-]
EC50 (Leishmania donovani [3]): > 1000 µM | EC50 (Leishmania donovani [4]): 40 µM | EC50 (Leishmania donovani [5]): 30 µM | EC50 (Leishmania donovani [1]): 40 µM | EC50 (Leishmania donovani [6]): 130 µM | EC50 (Leishmania donovani [7]): > 1000 µM

CCNCCCCNCC1CCC1CNCCCCNCC (stereo not given)
Activity (Leishmania donovani [1]): inactive | growth, % of control at 100 µM (Leishmania donovani [2]): 92.8%

CCNC/C=C\CNC/C=C\CNC/C=C\CNCC
Activity (Leishmania donovani [1]): inactive | growth, % of control at 100 µM (Leishmania donovani [2]): 104%

CCCCN [BUTYLAMINE]
EC50 (Leishmania donovani [3]): 2000 µM | EC50 (Leishmania donovani [4]): 3300 µM | EC50 (Leishmania donovani [5]): 200 µM | EC50 (Leishmania donovani [1]): 400 µM | EC50 (Leishmania donovani [6]): > 10000 µM | EC50 (Leishmania donovani [7]): 2100 µM

CCNC/C=C\CNCCCCNCCCCNCCCCNCC
Activity (Leishmania donovani [1]): inactive | growth, % of control at 100 µM (Leishmania donovani [2]): 83.2%

CCNCCCCNCCCCNCCCCNCCCCN(CC)CCCCNCCCCNCCCCNCCCCNCC
Activity (Leishmania donovani [1]): inactive | growth, % of control at 100 µM (Leishmania donovani [2]): 102%

CCNCCCCNCCCCNCCCCNCCCCNCCCCNCCCCNC/C=C/CNCCCCNCCCCNCCCCNCCCCNCCCCNCCCCNCC
EC50 (Leishmania donovani [1]): 6.5 µM | growth, % of control at 100 µM (Leishmania donovani [2]): 7.9%

N=C(N)c1ccc(OCCCCCOc2ccc(C(=N)N)cc2)cc1 [PENTAMIDINE]
EC50 (Leishmania donovani [3]): 1.9 µM | EC50 (Leishmania donovani [4]): 1.7 µM | EC50 (Leishmania donovani [5]): 1.7 µM | EC50 (Leishmania donovani [1]): 1.9 µM | EC50 (Leishmania donovani [6]): 2 µM | EC50 (Leishmania donovani [7]): 2.6 µM

CCNCCCCNCCCCNCCCCNC/C=C/CNCCCCNCCCCNCCCCNCC
Activity (Leishmania donovani [1]): inactive | growth, % of control at 100 µM (Leishmania donovani [2]): 85.5%

CCNCCCCNCC1CC1CNCCCCN(CC)C(=O)CCC1=C(C)c2cc3[nH]c(cc4nc(cc5[nH]c(cc1n2)c(CCC(=O)N(CC)CCCCNCC1CC1CNCCCCNCC)c5C)C(CC)=C4C)c(CC)c3C (stereo not given)
Activity (Leishmania donovani [1]): inactive | growth, % of control at 100 µM (Leishmania donovani [2]): 1.3%

CCNCCCCNCCCCNCCCCNCCCCNCCCCNCCCCNCCCCNCCCCNCCCCN(CC)C(=O)CCC1=C(C)c2cc3[nH]c(cc4nc(cc5[nH]c(cc1n2)c(CCC(=O)N(CC)CCCCNCCCCNCCCCNCCCCNCCCCNCCCCNCCCCNCCCCNCCCCNCC)c5C)C(CC)=C4C)c(CC)c3C
EC50 (Leishmania donovani [1]): 0.5 µM | growth, % of control at 100 µM (Leishmania donovani [2]): 2.2%

CCNCCCCNCCCCNCCCCNC/C=C\CNCCCCNCCCCNCCCCNCC
Activity (Leishmania donovani [1]): inactive | growth, % of control at 100 µM (Leishmania donovani [2]): 97.2%

N=C(N)c1ccc(/N=N/Nc2ccc(C(=N)N)cc2)cc1 [DIMINAZENE]
EC50 (Leishmania donovani [3]): 6.1 µM | EC50 (Leishmania donovani [4]): 8 µM | EC50 (Leishmania donovani [5]): 9.7 µM | EC50 (Leishmania donovani [1]): 9.5 µM | EC50 (Leishmania donovani [6]): 9.7 µM | EC50 (Leishmania donovani [7]): 8.7 µM

Reference: ChEMBL document CHEMBL1142196, “Leishmania donovani polyamine biosynthetic enzyme overproducers as tools to investigate the mode of action of cytotoxic polyamine analogs” (Antimicrob Agents Chemother, 2007)
